Experimental data taken from patent publication US9943501B2 (KOJUN JAPAN CO., LTD., priority 2014, dated 2018).
Entries after “also recorded” stand apart in the source; their conditions may differ.

How the values were obtained:
[1] = target: T1, human-derived PPARγ ligand-binding domain (Homo sapiens, UniProt P37231); assay: PPARγ activation test (GAL4 chimera / luciferase reporter in CV-1 cells); assay type: cell-based; details: for PPARγ ligand activity, ratio (%) of the activity of each synthesized product to the activity of the control substance (DMSO): control = 100
T1 construct: expressed in transfected cells; host or cells: CV-1 cells (African green monkey kidney-derived)
T1 sequence (P37231 238-503 limits assumed): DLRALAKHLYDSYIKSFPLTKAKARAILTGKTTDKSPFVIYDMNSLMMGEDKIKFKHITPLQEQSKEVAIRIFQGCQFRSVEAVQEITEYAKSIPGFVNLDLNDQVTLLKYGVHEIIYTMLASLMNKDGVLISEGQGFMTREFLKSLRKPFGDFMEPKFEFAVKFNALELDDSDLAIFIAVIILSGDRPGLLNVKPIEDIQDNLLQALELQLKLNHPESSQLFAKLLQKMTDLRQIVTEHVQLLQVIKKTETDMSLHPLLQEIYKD
Procedure: A measurement method for the PPAR activation test in Examples below were conducted as described below.
(1) PPARγ Activation Test
A plasmid pM-PPARγ for the expression of a chimeric protein composed of a human-derived PPARγ ligand-binding domain and a DNA-binding domain of a yeast-derived GAL4 transcription factor, and a plasmid p4×UASg-tk-luc containing a Cypridina-derived luciferase structural gene linked downstream of a GAL4 responsive sequence designed such that its expression was controlled by this chimeric protein, were prepared. Also, a Renilla-derived luciferase expression plasmid pRL-CMV having a viral expression promoter for constitutive intracellular expression was prepared as a plasmid for the correction of transfection efficiency. On the other hand, DMEM containing 10% FBS was used as a medium for CV-1 cells (African green monkey kidney-derived). The CV-1 cells were seeded at 4.5×10^5 cells over a 100-mm Petri dish and cultured in an incubator at 37° C. in a 5% CO2 environment.
(1-2) Transformation of CV-1 Cell
The CV-1 cells thus cultured for 24 hours were cotransfected with 2.0 μg of pM-PPARγ, 4.0 μg of p4×UASg-tk-luc, and 0.04 μg of pRL-CMV to transform the CV-1 cells. The transformation was carried out by the liposome method using LipofectAMINE(R) Reagent (a product of Invitrogen Corp.). After the transformation operation, the cells were cultured at 37° C. for 3.5 hours in a 5% CO2 environment.
(1-3) Addition of Test Sample
The CV-1 cells thus incubated were recovered by trypsin treatment, and […] thereof was inoculated at a concentration of 1×10^5 cells/mL to a 96-well plate. Each test sample was diluted with DMEM containing 4% FBS to adjust its concentration to twice the final concentration, and […] thereof was added to the 96-well plate mentioned above. DMSO was used as a control substance. After the addition of the test sample or the control substance (DMSO), the mixture was incubated at 37° C. for 24 hours in a 5% CO2 environment.
(1-4) Measurement of Luciferase Activity
The luciferase activity was measured using Dual-Luciferase(R) Reporter Assay System (a product of Promega K.K.). The culture solution was removed from the 96-well plate. The cells were washed with PBS(−), and moisture was removed therefrom using a paper towel. To the cells, […] of a cell lysis solution (Passive Lysis Buffer) was added, and the 96-well plate was shaken for 15 minutes. The cell extract was transferred at […] to a 96-well luminoplate. A luminescent substrate solution was added thereto at […]. The luminescence intensity based on the luciferase was measured for a measurement time set to 10 seconds using a luminometer (Micro Lumat Plus, a product of Berthold Japan Co., Ltd.).
The PPARγ-activating effect of the test sample was evaluated on the basis of a ratio (%) relative to controls. In order to correct transfection efficiency, the measured Cypridina luciferase activity value (A) was divided by the measured Renilla luciferase activity value (B) to determine a value (A/B). The average A/B value of the control group was calculated and defined as 100. The A/B value of the test sample was calculated, and the ratio (%) of this value to the average value of the controls was used as the ability of the test sample to activate PPARγ.
Their PPARγ ligand activity was measured in the same way as in Example 7 except that the incubation time after the test sample addition was set to 48 hours. The values shown in the table below and the ordinate of the drawing depict the ratio (%) of the activity of each synthesized product to the activity of the control substance (DMSO). In Table 1 and FIG. 13, these various butenolide compounds used as test samples were each indicated by the functional group of R^2 in the formula (1).

UCP-1 gene = assay: Measurement of UCP-1 gene expression level in mesenchymal cell line 10T1/2; assay type: cell-based; details: 10T1/2 cells; 100 μg/mL; 24 hours; FIG. 11
Source text: Mitochondrial uncoupling proteins (or uncoupling proteins: UCPs) have the function of uncoupling oxidative phosphorylation reaction in the mitochondrial inner membrane to consume the energy as heat. Among them, UCP-1 is specifically expressed in brown fat cells that produce heat by burning fat. In recent years, particular synthetic PPARγ agonists have been reported to convert white fat cells working to store fat to brown fat cells working to burn fat (H. Ohno et al, Cell metabolism, 2012, Vol. 15, pp. 395-404).
The test was conducted as follows: a mesenchymal cell line 10T1/2 was inoculated at 1×10^4 cells/mL to a 12-well plate. The cells were cultured until confluent. Then, the fraction of peak 5 (5H4PB) was added thereto such that its final concentration was 100 μg/mL. DMSO was used as a control substance. Twenty-four hours after the sample addition, mRNA was recovered from the cells, and the mRNA level was determined. The mRNA quantification was carried out using LightCycler(R) (Roche Applied Science). The ordinate of the drawing depicts the ratio of the UCP-1 expression level for the fraction of peak 5 to the UCP-1 expression level for the control substance (DMSO). […] The increased expression level of UCP-1 indicates enhanced heat production from lipids.

[2] = tested on: liver (hepatocytes) of C57BL/6J mice fed with a high-fat diet; assay: Influence of administration on liver tissue (histopathological examination); assay type: in vivo, mouse; details: 12 weeks, high-fat diet
Source text: In Example 13, the liver was collected during the collection of fat tissues from each individual and histopathologically examined. The findings from the histopathological examination were as described below.
For the individuals of the normal group, the deposition of fat droplets was not observed in the hepatocytes, whereas only the very mild infiltration of inflammatory cells was observed.

[3] = test sample concentration 0.032 μg/mL, incubation 48 hours
[4] = test sample concentration 0.08 μg/mL, incubation 48 hours
[5] = test sample concentration 0.16 μg/mL, incubation 48 hours
[6] = test sample concentration 0.4 μg/mL, incubation 48 hours
[7] = test sample concentration 0.8 μg/mL, incubation 48 hours, * = twice or more vs control, p<0.05
[8] = test sample concentration 2 μg/mL, incubation 48 hours, * = twice or more vs control, p<0.05
[9] = test sample concentration 4 μg/mL, incubation 48 hours, * = twice or more vs control, p<0.05

| Compound | PPARγ ligand activity, ratio (%) of the activity of each synthesized product to the activity of the control substance (DMSO) [1, 3] [%] | PPARγ ligand activity, ratio (%) of the activity of each synthesized product to the activity of the control substance (DMSO) [1, 4] [%] | PPARγ ligand activity, ratio (%) of the activity of each synthesized product to the activity of the control substance (DMSO) [1, 5] [%] | PPARγ ligand activity, ratio (%) of the activity of each synthesized product to the activity of the control substance (DMSO) [1, 6] [%] | PPARγ ligand activity, ratio (%) of the activity of each synthesized product to the activity of the control substance (DMSO) [1, 7] | PPARγ ligand activity, ratio (%) of the activity of each synthesized product to the activity of the control substance (DMSO) [1, 8] | PPARγ ligand activity, ratio (%) of the activity of each synthesized product to the activity of the control substance (DMSO) [1, 9] | PPARγ ligand activity, ratio (%) of the activity of each synthesized product to the activity of the control substance (DMSO) ([1]; test sample concentration 10 μg/mL, incubation 48 hours, * = twice or more vs control, p<0.05) | PPARγ ligand activity, ratio (%) of the activity of each synthesized product to the activity of the control substance (DMSO) ([1]; test sample concentration 20 μg/mL, incubation 48 hours, * = twice or more vs control, p<0.05) | deposition of fat droplets in the hepatocytes ([2]; 0.037 μg/kg/day) | deposition of fat droplets in the hepatocytes ([2]; 10 mg/kg/day) | swelling of hepatocytes ([2]; 10 mg/kg/day) | PPARγ ligand activity of butenolide compounds (in words) ([1]; Example 8, incubation 48 hours, Table 1 and FIG. 13, listed as 5-hydroxy-4-(4-methylphenyl)butenolide) | PPARγ ligand activity of the fraction of peak 5 ([1]; 50 μg/mL and 100 μg/mL, FIG. 9) | PPARγ ligand activity of peak fractions ([1]; final concentration 100 μg/mL, FIG. 7) | expression level of UCP-1 (mRNA) relative to control substance (DMSO) (UCP-1 gene) |
| --- | --- | --- | --- | --- | --- | --- | --- | --- | --- | --- | --- | --- | --- | --- | --- | --- |
| Cc1ccc(C2=CC(=O)OC2O)cc1 (stereo not drawn) | 170 | 110 | 120 | 180 | 260* % | 560* % | 710* % | – | – | – | – | – | high activity in a low concentration range; also recorded: highest activity | – | – | – |
| O=C1C=C(c2ccccc2)C(O)O1 (single isomer, unassigned) [5H4PB, 5-hydroxy-4-phenylbutenolide] | – | – | – | – | – | – | – | – | – | – | – | – | – | elevate in a concentration-dependent manner | distinct PPARγ ligand activity | effect of elevating the expression level of UCP-1 |

Continued, in another order:

| PPARγ ligand activity, ratio (%) of the activity of each synthesized product to the activity of the control substance (DMSO) [1, 3] [%] | PPARγ ligand activity, ratio (%) of the activity of each synthesized product to the activity of the control substance (DMSO) [1, 4] [%] | PPARγ ligand activity, ratio (%) of the activity of each synthesized product to the activity of the control substance (DMSO) [1, 5] [%] | PPARγ ligand activity, ratio (%) of the activity of each synthesized product to the activity of the control substance (DMSO) [1, 6] [%] | PPARγ ligand activity, ratio (%) of the activity of each synthesized product to the activity of the control substance (DMSO) [1, 7] | PPARγ ligand activity, ratio (%) of the activity of each synthesized product to the activity of the control substance (DMSO) [1, 8] | PPARγ ligand activity, ratio (%) of the activity of each synthesized product to the activity of the control substance (DMSO) [1, 9] | PPARγ ligand activity, ratio (%) of the activity of each synthesized product to the activity of the control substance (DMSO) ([1]; test sample concentration 10 μg/mL, incubation 48 hours, * = twice or more vs control, p<0.05) | PPARγ ligand activity, ratio (%) of the activity of each synthesized product to the activity of the control substance (DMSO) ([1]; test sample concentration 20 μg/mL, incubation 48 hours, * = twice or more vs control, p<0.05) | deposition of fat droplets in the hepatocytes ([2]; 0.037 μg/kg/day) | deposition of fat droplets in the hepatocytes ([2]; 10 mg/kg/day) | swelling of hepatocytes ([2]; 10 mg/kg/day) | Compound | PPARγ ligand activity of butenolide compounds (in words) ([1]; Example 8, incubation 48 hours, Table 1 and FIG. 13, listed as 5-hydroxy-4-(4-methylphenyl)butenolide) | PPARγ ligand activity of the fraction of peak 5 ([1]; 50 μg/mL and 100 μg/mL, FIG. 9) | PPARγ ligand activity of peak fractions ([1]; final concentration 100 μg/mL, FIG. 7) | expression level of UCP-1 (mRNA) relative to control substance (DMSO) (UCP-1 gene) |
| --- | --- | --- | --- | --- | --- | --- | --- | --- | --- | --- | --- | --- | --- | --- | --- | --- |
| 120 | 220 | 110 | 130 | 170% | 310* % | 360* % | – | – | – | – | – | O=C1C=C(Cc2ccccc2)C(O)O1 (stereo not drawn) [Benzyl, 5-hydroxy-4-benzylbutenolide] | – | – | – | – |
| 130 | 110 | 120 | 130 | 140% | 130% | 240* % | 340* % | 520* % | – | – | – | Cc1ccc(CC2=CC(=O)OC2O)cc1 (stereo not drawn) [Methylbenzyl, 5-hydroxy-4-(4-methylbenzyl)butenolide] | – | – | – | – |
| – | – | – | – | – | – | – | – | – | very mild to mild depositions | moderate deposition | mildly swollen | CN(CCOc1ccc(CC2SC(=O)NC2=O)cc1)c1ccccn1 (stereo not drawn) [rosiglitazone, reference compound] | – | – | – | – |
